Experimental data from ChEMBL document CHEMBL4342423, “An isoform-selective inhibitor of tropomyosin receptor kinase A behaves as molecular glue” (Bioorg Med Chem Lett, 2020).

Tests used:
[1] = target: T1, BDNF/NT-3 growth factors receptor (Homo sapiens, UniProt Q16620); assay: Inhibition of wild type human N-terminal GST-fusion tagged TRKB kinase domain (456 to 822 residues) expressed in baculovirus expression system by HTRF assay
[2] = target: T1, BDNF/NT-3 growth factors receptor; assay: Binding affinity to TRKB (unknown origin) assessed as dimerization by size exclusion chromatography

T1 sequence (Q16620 whole entry, the tested form may be a part): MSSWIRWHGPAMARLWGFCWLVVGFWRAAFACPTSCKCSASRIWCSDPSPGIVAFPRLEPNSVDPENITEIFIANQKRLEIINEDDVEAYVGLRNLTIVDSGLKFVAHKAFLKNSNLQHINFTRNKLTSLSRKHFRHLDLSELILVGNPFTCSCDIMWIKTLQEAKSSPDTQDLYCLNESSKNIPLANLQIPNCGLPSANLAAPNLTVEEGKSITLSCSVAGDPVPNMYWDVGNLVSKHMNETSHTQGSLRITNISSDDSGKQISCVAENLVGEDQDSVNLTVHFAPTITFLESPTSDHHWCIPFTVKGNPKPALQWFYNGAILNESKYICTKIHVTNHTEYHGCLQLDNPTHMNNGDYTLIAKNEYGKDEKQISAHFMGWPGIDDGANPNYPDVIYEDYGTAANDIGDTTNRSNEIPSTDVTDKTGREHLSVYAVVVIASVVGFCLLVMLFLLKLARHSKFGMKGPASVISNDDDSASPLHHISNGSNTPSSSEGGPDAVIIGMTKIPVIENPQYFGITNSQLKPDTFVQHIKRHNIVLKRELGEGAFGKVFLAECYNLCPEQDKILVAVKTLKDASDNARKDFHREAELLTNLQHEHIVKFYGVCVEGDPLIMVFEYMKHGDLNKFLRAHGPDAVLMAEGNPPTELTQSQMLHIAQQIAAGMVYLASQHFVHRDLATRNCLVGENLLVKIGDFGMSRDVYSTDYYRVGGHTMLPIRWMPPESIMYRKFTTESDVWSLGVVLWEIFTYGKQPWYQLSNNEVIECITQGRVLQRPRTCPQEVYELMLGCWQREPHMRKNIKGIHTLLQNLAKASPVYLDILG

Structure (SMILES) | IC50 [1] | Activity [2]
Nc1c(N2CCN(C3CCCCC3)CC2)cc(Nc2ccc(C(=O)O)cc2)c2c1C(=O)c1ccccc1C2=O | 94 µM | Not Active
CC(C)Oc1cc(Nc2nc(N[C@@H](C)c3ccc(F)cn3)ncc2Cl)n[nH]1 | 0.00093 µM | 
